Several values for one entry are separate records, joined by “and”; a condition that tells them apart may be missing. Equal entries are not always repeated. Where two headings read alike, the source gives them in different places.
Legend:
[1] = system: Igrov-1; test: CellTiter-Glo toxicity, 4 days (Example 9); assay type: cell-based; conditions: Homo sapiens, IGROV-1, 96 h, 4 days of drug incubation; Table 7A
How it was run: (§1)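 Cells were seeded in 384-well plates, dosed 24 h later and incubated with drug for 4 days. Viability was read as ATP luminescence by CellTiter-Glo and normalised to untreated controls. IC50 is the concentration giving 50% of maximum cell killing.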

[2] = system: A2058; test: CellTiter-Glo toxicity, 4 days (Example 9); assay type: cell-based; conditions: Homo sapiens, A2058, 96 h, 4 days of drug incubation; Table 7A
How it was run: as §1

[3] = system: UACC-257; test: CellTiter-Glo toxicity, 4 days (Example 9); assay type: cell-based; conditions: Homo sapiens, UACC-257, 96 h, 4 days of drug incubation; Table 7A
How it was run: as §1

[4] = system: KPL-4; test: CELLTITER GLO cell proliferation assay (Example 6); assay type: cell-based; conditions: data in parenthesis = repeat evaluations
Protocol: (§2) The toxicity of PBD monomer disulfide prodrugs and diaphorase prodrugs were evaluated against KPL-4, WSU-DLCL2, HCT-116, HCC1395 and Jurkat cell cultures. […] KPL-4 cells further have a high expression of DTD on the order of about 839 nRPKM (where nRPKM refers to normalized reads per Kb of transcript length per million mapped read).
(§3) Potency of the disulfide and DT-diaphorase prodrugs was measured by a cell proliferation assay employing the following protocol (CELLTITER GLO™ Luminescent Cell Viability Assay, Promega Corp.). First, an aliquot of 40 ul of cell culture containing about 8000 cells of WSU-DLCL2 cells (low NQO1 gene and GSH level), 4000 cells of KPL-4 (high NQO1 gene and GSH level), HCT-116 cells, HCC1395 cells or Jurkat cells in RPMI-1640 culture medium (supplemented with 10% fetal bovine serum, 2 mM glutamine, 50 uM cystine, and 0.015 g/L L-methionine) was deposited in each well of a 384-well flat clear bottom white polystyrene tissue culture-treated microplates (Corning, N.Y.). Second, control wells were prepared containing medium with and without cells. Third, compounds with and without disulfide or DT-diaphorase prodrugs (n=3) were added to the experimental wells using ECHO acoustic liquid handling technology (Labcyte Inc, Sunnyvale, Calif.) to create a 10-point dose-response curve in triplicate with 1:3× serial dilution. Fourth, cells were cultured in a humidified incubator set at 37° C. and maintaining an atmosphere of 5% CO2. Fifth, the plates were equilibrated to room temperature for approximately 30 minutes. Sixth, a volume of CELLTITER GLO™ Reagent equal to the volume of cell culture medium present in each well was added. Seventh, the contents were mixed for 10 minutes on an orbital shaker in the dark to induce cell lysis. Eighth, the plate was incubated at room temperature for 30 minutes to stabilize the luminescence signal. Ninth, luminescence was recorded and reported in graphs as % activity where RLU (relative luminescence units) was normalized to controls (no compound control minus no cell control). Tenth, data was plotted as individual points for each replicate (n=3) for each antibody as the mean of luminescence for each set of replicates, with standard deviation error bars.

[5] = system: WSU-DLCL2; test: CELLTITER GLO cell proliferation assay (Example 6); assay type: cell-based; conditions: data in parenthesis = repeat evaluations
Protocol: as §2, §3

[6] = Disulfide cleavage by glutathione (GSH), LC/MS; assay type: physicochemical; conditions: 15 uM compound, 4 mM GSH, pH 7.0, 37 C
How it was run: (§4)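 Compounds at 15 μM incubated at 37° C with 4 mM GSH or 0.2 mM cysteine in 100 mM Tris pH 7.0 with 5% methanol, sampled at set time points. Products separated on C18 and characterized by positive ESI LC/MS/MS; relative abundance estimated from full-scan accurate mass peak areas.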

[7] = system: SK-BR-3; test: CellTiter-Glo toxicity, 3 days (Example 7); assay type: cell-based; conditions: Homo sapiens, SK-BR-3, 72 h
Protocol: The toxicity of PBD monomer disulfide prodrugs 1 to 4, PBD dimer disulfide prodrugs 1 and 4, PBD monomer control 1 and PBD dimer control 1 were evaluated against SK-BR-3 cell cultures. […] The HER2-positive breast cancer cell line, SK-BR-3, was obtained internally at Genentech after having been verified by sequence analysis. The cells were grown at 37 Celsius in DMEM+10% FBS supplemented with 2 mM L-glutamine for the duration of this assay. On the first day of the experiment, designated “Day −1”, SK-BR-3 cells were harvested from tissue culture flasks, counted, and then seeded into 96-well plates at a concentration of 7,500 cells per well. The next day, designated “Day 0”, cell culture media was removed from the cells and replaced with 100 uL of fresh media containing a serial dilution (1:3) of the compounds in Table 5 below. The plates were then returned to the 37 Celsius incubator and allowed to incubate for 3 days. On “Day 3” of the assay, the plates were removed from the incubator and allowed to equilibrate to room temperature before adding 100 uL of room-temperature CellTiter-Glo reagent (Promega). The plates were then agitated at 300 rpm for 10 minutes. The luminescence signal generated from this reaction was recorded on an Envision plate reader (Perkin-Elmer). The data were arranged in Excel (Microsoft) and graphed in Kaleidagraph (Synergy Software).

[8] = Disulfide cleavage by cysteine, LC/MS; assay type: physicochemical; conditions: 15 uM compound, 0.2 mM cysteine, pH 7.0, 37 C
How it was run: as §4

[9] = system: KPL-4 Cell line; test: Cell viability, DTD-activated quinone prodrugs (Example 15); assay type: cell-based; conditions: KPL4, read-out: IC50 Potency (nM)
Protocol: (§5) The toxicity of PBD dimer diaphorase prodrug 1, PBD monomer diaphorase prodrug 2, PBD dimer control 1 and PBD monomer control 1 were evaluated against KPL-4 and WSU cell lines for cell viability. The KPL-4 cell line is was a high DTD cell line characterized by NQO1 nRPKM of 839 and the WSU cell line was a low DTD cell line characterized by a NQO1 nRPKM of 1.36. The IC50 ratios are based on the prodrug IC50 value relative to the PBD dimer control.

[10] = system: WSU Cell line; test: as above; assay type: cell-based; conditions: read-out: IC50 Potency (nM)
Protocol: as §5

[11] = target: T1, DT Diaphorase (Homo sapiens, UniProt P15559); test: in vitro DT diaphorase activated drug release assay (NADPH depletion); assay type: biochemical; conditions: in <5 min
T1 construct: purchased Sigma D1315
T1 sequence (P15559 whole entry): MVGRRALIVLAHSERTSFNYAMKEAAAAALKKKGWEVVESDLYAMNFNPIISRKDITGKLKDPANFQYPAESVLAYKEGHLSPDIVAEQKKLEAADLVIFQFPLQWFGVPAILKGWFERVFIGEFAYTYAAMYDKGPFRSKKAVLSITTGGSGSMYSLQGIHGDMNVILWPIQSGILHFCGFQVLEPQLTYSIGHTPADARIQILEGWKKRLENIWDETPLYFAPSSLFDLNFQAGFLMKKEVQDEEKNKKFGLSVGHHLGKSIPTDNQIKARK
Protocol: An in vitro DT diaphorase activated drug release assay was used to measure NADPH depletion. DT diaphorase activated release of Norfloxacin and Payload (PBD) was measured by the in vitro depletion of NADPH. The assay method was modified from the absorbance measurement of NADPH at A340 (Osman et. al, Chemico-Biological Interactions 147 (2004) 99-108) due to the interference of compounds. The depletion of NADPH was measured by monitoring the decrease of fluorescence intensity of NADPH at 480 nm after being excited at […]. […] Prior to assay, dilute the stock to 1 mM as the 5× working solution; (5) DT Diaphorase specific Inhibitor: prepare 40 mM stock of Dicumarol (Sigma, Cat #M1390-5G, MW=336.29) in 0.13 N NaOH, stored at 4° C. Dilute the stock to 250 uM as the 5× working solution; (6) Compounds: dilute the Norfloxacin and PBD conjugated compounds in assay buffer to 250 uM as the 5× working solution; and (7) 384 well black plate with clear bottom. For the assay procedure: (1) The reaction mix containing 0.5 uM DT-D, 50 uM compound, […] NADPH was set up in a 384 well plate at 50 ul/well. For the control with DT Diaphorase inhibitor, Dicumarol was added in the reaction mix at final 50 uM for each compound. Reaction mix containing NADPH and compound only was also added as the baseline controls. The DT Diaphorase was added in the last step; and (2) The reaction mixes were incubated at room temperature for 5, 30, 90 min. The fluorescence intensity (RFU) of DNAPH was recorded on M1000 plate reader (Tecan) with excitation at 340 nm and emission at 480 nm. For data analysis, data was analyzed and plotted using Prism GraphPad 6. The depletion of NADPH was calculated by the formula below at reaction time point at 90 min wherein: % NADPH depletion=[…].

[12] = system: HCT-116; test: CELLTITER GLO cell proliferation assay (Example 6); assay type: cell-based; conditions: Homo sapiens
Protocol: as §2, §3

[13] = system: double strand DNA Oligos 1 and 2; test: DNA oligo binding, LC/MS/UV; conditions: 100 uM compound, 100 uM DNA, 1 hour, 37 C
Protocol: For DNA binding determination, the compounds were incubated at 100 μM with 100 μM double strand DNA Oligos 1 and 2 for 1 hour in 10 mM Bis-Tris, pH 7.1 at 37° C. The single strand DNA Oligos (5′-TATAGAATCTATA-3′ and 3′-ATATCTTAGATAT-5′) were synthesized at Genentech. The samples were analyzed by LC/MS/UV (210-450 nm) on Sciex TripleTOF 5600 on a Hypersil Gold C18 column (100×2.1, 1.9 Thermo Scientific). The column was eluted at 0.4 mL/min by a gradient of buffer A (50 mM hexafluoro-isopropanol and 15 mM diisopropylethylamine) to buffer B (50% A and 50% of 1:1 methanol:acetonitrile), 5% 0-0.5 min, 5-25% B 0.5-25 min, 25-95% B 25-40 min, and to 95% B 40-42 min. The % remaining was an average of the starting DNA oligos remaining in incubations (n=2). The products were characterized by LC/MS in a negative ESI ion mode.

[14] = KPL4, read-out: IC50 potency KPL-4, Table 4
[15] = Homo sapiens, WSUDLCL2, read-out: IC50 potency WSU-DLCL2, Table 4

In the case of `C=C1C[C@H]2C(O)N(C(=O)OCCSSC(C)C)c3cc(OC)c(OC)cc3C(=O)N2C1` (some centres unmarked) [PBD monomer disulfide prodrug 2], the IC50 [1] is reported as 1870 nM, the IC50 [2] is reported as 635 nM and the IC50 [3] is reported as 1860 nM. The IC50 [4, 14] was 497 nM, the IC50 [5, 15] was 1020 nM and the “% Remaining at 24 h by GSH” value [6] was 0.4% and 0%. The IC50 ([7]; read-out: SK-BR-3 IC50 (nM)) was 1760 nM and the “% Remaining at 24 h by Cys” value [8] was 77.6%.

For `C=C1C[C@H]2C(O)N(C(=O)OCc3cc4c(n3C)C(=O)C=C(OC)C4=O)c3cc(OC)c(OC)cc3C(=O)N2C1` (some centres unmarked) [PBD monomer diaphorase prodrug 2], the IC50 [9] was 344 nM, the IC50 [10] was 575 nM and the “NADPH Dep.” value [11] was over 90% in. The IC50 [4, 14] was 344 nM, the IC50 ([4]; read-out: IC50 potency KPL-4, Table 4) was 355 nM and the IC50 [5, 15] was 575 nM. The IC50 ([5]; read-out: IC50 potency WSU-DLCL2, Table 4) was 288 nM and the IC50 ([12]; HCT-116, read-out: IC50 potency HCT-116) was 223 nM.

`C=C1C[C@H]2C(O)N(C(=O)OCC3(SSCC)CCC3)c3cc(OCCCCCOc4cc5c(cc4OC)C(=O)N4CC(=C)C[C@H]4C(O)N5C(=O)OCC4(SSCC)CCC4)c(OC)cc3C(=O)N2C1` (some centres unmarked) [PBD dimer disulfide prodrug 4] gave an IC50 [1] of 2.5 nM, an IC50 [3] of 7.8 nM and an IC50 ([7]; read-out: SK-BR-3 IC50 (nM)) of 3.09 nM.

`C=C1C[C@H]2C(O)N(C(=O)OCCSSCC)c3cc(OC)c(OC)cc3C(=O)N2C1` (some centres unmarked) [PBD monomer disulfide prodrug 1] showed an IC50 [1] of 123 nM, an IC50 [2] of 82.9 nM and an IC50 [3] of 276 nM. The IC50 [4, 14] was 324 nM, the IC50 [5, 15] was 274 nM and the “% Remaining at 24 h by GSH” value [6] was 0.5%. For the same compound, the IC50 ([7]; read-out: SK-BR-3 IC50 (nM)) was 331 nM and the “% Remaining at 24 h by Cys” value [8] was 17.9%.

For `C=C1C[C@H]2C=Nc3cc(OCCCCCOc4cc5c(cc4OC)C(=O)N4CC(=C)C[C@H]4C(O)N5C(=O)OCC4(SSCC)CCC4)c(OC)cc3C(=O)N2C1` (some centres unmarked) [PBD dimer disulfide prodrug 1], the IC50 [1] was 0.21 nM, the IC50 [3] was 2.2 nM and the “% DNA oligo remaining” value [13] was over 99.5%. It also gave an IC50 ([7]; 3 days, read-out: SK-BR-3 IC50) of 2.39 nM.

`C=C1C[C@H]2C(O)N(C(=O)OCC3(SSCC)CCC3)c3cc(OC)c(OC)cc3C(=O)N2C1` (some centres unmarked) [PBD monomer disulfide prodrug 3] gave an IC50 [1] of 254 nM, an IC50 [2] of 75.2 nM and an IC50 [3] of 356 nM. The IC50 [4, 14] was 360 nM, the IC50 [5, 15] was 531 nM and the “% Remaining at 24 h by GSH” value [6] was 2.90%. For the same compound, the IC50 ([7]; read-out: SK-BR-3 IC50 (nM)) was 616 nM and the “% Remaining at 24 h by Cys” value [8] was 73.5%.

For `C=C1C[C@H]2C(O)N(C(=O)OCC(C)(C)SSC(C)(C)C)c3cc(OC)c(OC)cc3C(=O)N2C1` (some centres unmarked) [PBD monomer disulfide prodrug 4], the IC50 [1] was 12600 nM, the IC50 [2] was 8110 nM and the IC50 [3] was 19200 nM. The IC50 [4, 14] was over 10000 nM, the IC50 [5, 15] was over 10000 nM and the “% Remaining at 24 h by GSH” value [6] was 99.9%. For the same compound, the IC50 ([7]; read-out: SK-BR-3 IC50 (nM)) was over 10000 nM and the “% Remaining at 24 h by Cys” value [8] was 99.9%.

Work on `C=C1C[C@H]2C=Nc3cc(OCCCCCOc4cc5c(cc4OC)C(=O)N4CC(=C)C[C@H]4C(O)N5C(=O)OCc4cn(C)c5c4C(=O)C(OC)=CC5=O)c(OC)cc3C(=O)N2C1` (some centres unmarked) [PBD dimer diaphorase prodrug 3] yielded an IC50 ([4]; KPL4, Table 4, read-out: IC50 potency KPL-4) of 1.87 nM, an IC50 ([5]; Homo sapiens, WSUDLCL2, Table 4, read-out: IC50 potency WSU-DLCL2) of 0.24 nM and an IC50 ([12]; HCT-116, Table 4, read-out: IC50 potency HCT-116) of 1.23 nM.

From patent publication US11576979B2, “Pyrrolobenzodiazepine prodrugs and antibody conjugates thereof” (GENENTECH, INC., priority 2016, dated 2023)
